Measured values: patent US12590953B2, “Methods for screening cereblon modifying compounds” (CELGENE CORPORATION, priority 2018, dated 2026)
Entries after “also recorded” stand apart in the source; their conditions may differ.

What was measured:
[1] = biological target: T1, ZFP91 cereblon-binding zinc finger (a.a. 395-423) / human cereblon (Homo sapiens, UniProt Q96JP5+Q96SW2); test: In vitro ubiquitination of ZFP91 zinc finger by human cereblon; format: biochemical; settings: thalidomide vs DMSO
T1 construct: Human cereblon-DDB1 (cereblon amino acids 40-442 and full length DDB1); ZZ-domain-6xHis-thrombin site (N, cleaved yes); made in house; host or cells: SF9 insect cells (cereblon-DDB1, Cul4A-Rbx1); E. coli BL21 (DE3) Star (MBP-zinc finger)
T1 sequence (Q96SW2 40-442 limits assumed): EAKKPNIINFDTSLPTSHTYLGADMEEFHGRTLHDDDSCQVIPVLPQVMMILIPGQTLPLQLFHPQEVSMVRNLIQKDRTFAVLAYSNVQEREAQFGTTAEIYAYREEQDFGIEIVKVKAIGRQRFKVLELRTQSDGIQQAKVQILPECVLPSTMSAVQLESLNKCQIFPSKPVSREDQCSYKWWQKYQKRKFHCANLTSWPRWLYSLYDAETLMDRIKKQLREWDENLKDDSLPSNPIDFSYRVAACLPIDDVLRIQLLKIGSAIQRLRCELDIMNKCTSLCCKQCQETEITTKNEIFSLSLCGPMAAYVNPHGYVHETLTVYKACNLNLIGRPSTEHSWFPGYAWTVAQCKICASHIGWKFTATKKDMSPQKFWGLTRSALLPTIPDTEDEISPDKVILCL
T1 sequence (Q96JP5 395-423 limits assumed): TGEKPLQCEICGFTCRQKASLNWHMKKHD
T1 sequence (Q16531 whole entry partner, the tested form may be a part): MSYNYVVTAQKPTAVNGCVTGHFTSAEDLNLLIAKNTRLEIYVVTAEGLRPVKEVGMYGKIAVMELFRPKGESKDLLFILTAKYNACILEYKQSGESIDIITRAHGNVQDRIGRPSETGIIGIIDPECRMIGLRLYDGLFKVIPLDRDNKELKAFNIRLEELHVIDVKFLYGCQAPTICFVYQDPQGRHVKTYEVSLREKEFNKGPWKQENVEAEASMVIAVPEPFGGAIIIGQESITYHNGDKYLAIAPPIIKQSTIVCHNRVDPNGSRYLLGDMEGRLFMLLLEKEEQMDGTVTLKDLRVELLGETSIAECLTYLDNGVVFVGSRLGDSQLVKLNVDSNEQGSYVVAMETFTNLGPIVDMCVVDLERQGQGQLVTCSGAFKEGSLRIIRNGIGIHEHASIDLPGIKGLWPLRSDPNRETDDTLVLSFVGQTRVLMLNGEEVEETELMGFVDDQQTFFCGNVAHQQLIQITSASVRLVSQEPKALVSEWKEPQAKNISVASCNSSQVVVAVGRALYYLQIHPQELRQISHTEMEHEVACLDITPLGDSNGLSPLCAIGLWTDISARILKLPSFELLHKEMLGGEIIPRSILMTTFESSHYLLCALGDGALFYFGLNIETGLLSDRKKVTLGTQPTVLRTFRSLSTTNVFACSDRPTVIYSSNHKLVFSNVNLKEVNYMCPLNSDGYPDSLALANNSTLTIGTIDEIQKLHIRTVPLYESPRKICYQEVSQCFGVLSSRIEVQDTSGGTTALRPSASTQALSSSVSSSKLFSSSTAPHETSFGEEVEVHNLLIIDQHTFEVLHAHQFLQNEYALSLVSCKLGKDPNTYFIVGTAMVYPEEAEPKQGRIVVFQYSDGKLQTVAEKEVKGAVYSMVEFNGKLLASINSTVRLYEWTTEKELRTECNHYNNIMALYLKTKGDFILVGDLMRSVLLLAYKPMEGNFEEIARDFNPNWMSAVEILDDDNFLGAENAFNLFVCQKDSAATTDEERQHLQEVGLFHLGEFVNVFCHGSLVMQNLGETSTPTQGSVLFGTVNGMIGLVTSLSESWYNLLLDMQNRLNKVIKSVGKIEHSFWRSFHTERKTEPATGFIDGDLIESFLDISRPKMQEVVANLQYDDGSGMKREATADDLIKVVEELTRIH
T1 sequence (Q13619 whole entry partner, the tested form may be a part): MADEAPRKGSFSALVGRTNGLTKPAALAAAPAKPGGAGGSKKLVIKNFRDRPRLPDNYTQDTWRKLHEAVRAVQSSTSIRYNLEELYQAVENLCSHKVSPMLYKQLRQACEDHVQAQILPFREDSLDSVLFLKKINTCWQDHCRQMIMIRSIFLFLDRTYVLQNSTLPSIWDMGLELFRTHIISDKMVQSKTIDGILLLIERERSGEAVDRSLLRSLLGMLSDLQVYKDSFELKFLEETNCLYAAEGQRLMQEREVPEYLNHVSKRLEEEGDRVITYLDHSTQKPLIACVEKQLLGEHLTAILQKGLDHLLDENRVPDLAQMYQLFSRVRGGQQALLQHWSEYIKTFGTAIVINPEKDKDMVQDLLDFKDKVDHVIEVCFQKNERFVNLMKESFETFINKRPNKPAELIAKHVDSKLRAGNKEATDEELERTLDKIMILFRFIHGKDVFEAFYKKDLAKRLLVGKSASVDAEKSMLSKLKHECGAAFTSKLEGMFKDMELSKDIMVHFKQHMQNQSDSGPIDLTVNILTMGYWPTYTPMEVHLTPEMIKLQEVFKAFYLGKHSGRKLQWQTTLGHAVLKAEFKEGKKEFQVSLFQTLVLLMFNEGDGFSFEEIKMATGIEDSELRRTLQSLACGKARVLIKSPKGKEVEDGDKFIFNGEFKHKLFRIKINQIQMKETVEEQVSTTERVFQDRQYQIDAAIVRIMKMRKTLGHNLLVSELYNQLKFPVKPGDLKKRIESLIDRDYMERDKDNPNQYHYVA
T1 sequence (P62877 whole entry partner, the tested form may be a part): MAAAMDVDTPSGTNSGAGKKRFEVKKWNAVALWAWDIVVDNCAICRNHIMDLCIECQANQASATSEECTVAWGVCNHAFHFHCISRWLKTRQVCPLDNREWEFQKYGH
Experimental: Glycine degron-containing zinc fingers are highlighted with stars. […] Ubiquitination reactions were separated by SDS-PAGE followed by anti-MBP western blot. […] Results in panels b and c are representative of 3 independent experiments.
Purified E1, E2, ubiquitin, Cul4A-Rbx1, cereblon-DDB1, and GSPT1 proteins were used to reconstitute the ubiquitination of MBP-fused WT and mutant proteins in vitro. Substrate proteins purified by maltose affinity resin (NEB) were incubated at an approximate concentration of 30 uM. Ubiquitination components described briefly: Human cereblon-DDB1 (cereblon amino acids 40-442 and full length DDB1) and 6×his-DDB1 alone were co-expressed in SF9 insect cells in the presence of 50 μM zinc acetate, and purified by nickel affinity resin (Qiagen), HiTrap ANX column ion exchange (GE Healthcare), and Sephacryl 400 16/60 size exclusion chromatography (GE healthcare). Human full length Cul4A and Rbx1 were co-expressed in SF9 insect cells and purified by nickel affinity resin and Superdex 200 16/60 size exclusion chromatography. Purified recombinant human Ube1 E1 (E-305), UbcH5a E2 (E2-616), and ubiquitin (U-100H) were purchased from R&D systems. […]

[2] = biological target: T2, endogenous SALL4 in NCCIT, NETRA-2 c1.D1 and AN3-CA cancer cell lines (Homo sapiens, UniProt Q96SW2+Q9UJQ4); test: Degradation of endogenous SALL4 in cancer cell lines, western blot; format: cell-based; settings: 16 hour treatment; anti-SALL4 western blot
T2 construct: endogenous in cells; host or cells: NCCIT, NETRA-2 c1.D1 and AN3-CA cancer cell lines

[3] = biological target: T3, ZFP91 (Homo sapiens, UniProt Q96JP5+Q96SW2); test: Degradation of ZFP91 in Lenti-x 293 cells (control substrate); format: cell-based; settings: Lenti-x 293 cell lines expressing cereblon
T3 construct: endogenous in cells; host or cells: Lenti-x 293 cell line with CRISPR-cas9 cereblon knock-out, transfected with GST-cereblon

[4] = tested on: SALL4; test: SALL4 immunohistochemistry in rabbit testis; format: in vivo; settings: male rabbits
Experimental: Male New Zealand white rabbits were treated with vehicle (1% Carboxymethylcellulose in deionized water), or Thalidomide at either 30 or 150 mg/kg/day for 56 days to investigate testicular degeneration. Testis were collected 24 hours after the last dose, fixed in 10% NBF, processed, embedded in paraffin and sectioned at 4 microns for immunohistochemistry.
(§1) Rabbit embryos were stained for SALL4, and mouse testis were stained for SALL4 and ZFP91. Immunohistochemistry (IHC) was performed on the Bond-III automated slide stainer (Leica Microsystems, Buffalo Grove, Ill.) using the Bond Polymer Refine Detection system (Leica Microsystems, DS9800). Formalin fixed paraffin embedded (FFPE) tissues were sectioned at four micron thick and deparaffinized on the Bond-Max instrument. Antigen retrieval was performed with Epitope Retrieval 2 (ER2, pH 9.0) for 20 min at 100° C. The slides were blocked for endogenous peroxidase activity with Peroxide Block for 5 minutes at room temperature. Sections were then incubated with the mouse monoclonal anti-SALL4 EE-30 antibody (Santa Cruz, sc-101147) at a 1:100 dilution for 60 min at room temperature, or with the rabbit monoclonal anti-ZFP91 antibody (Celgene custom clone 122-8-6) at 0.25 ug/ml. […]

[5] = biological target: CK1α (Homo sapiens, UniProt P48729); test: Degradation of CK1α (data not shown)
[6] = biological target: ZFP91 (Mus musculus, UniProt Q62511); test: ZFP91 immunohistochemistry in wild-type mouse testis; format: in vivo; set-up: tissue Taconic; host or cells: wild-type mouse testis (C57Bl/6Ntac); settings: wild type mice, 1000 mg/kg
Sequence of ZFP91 (Mus musculus, UniProt Q62511) (Q8C7D2 whole entry partner): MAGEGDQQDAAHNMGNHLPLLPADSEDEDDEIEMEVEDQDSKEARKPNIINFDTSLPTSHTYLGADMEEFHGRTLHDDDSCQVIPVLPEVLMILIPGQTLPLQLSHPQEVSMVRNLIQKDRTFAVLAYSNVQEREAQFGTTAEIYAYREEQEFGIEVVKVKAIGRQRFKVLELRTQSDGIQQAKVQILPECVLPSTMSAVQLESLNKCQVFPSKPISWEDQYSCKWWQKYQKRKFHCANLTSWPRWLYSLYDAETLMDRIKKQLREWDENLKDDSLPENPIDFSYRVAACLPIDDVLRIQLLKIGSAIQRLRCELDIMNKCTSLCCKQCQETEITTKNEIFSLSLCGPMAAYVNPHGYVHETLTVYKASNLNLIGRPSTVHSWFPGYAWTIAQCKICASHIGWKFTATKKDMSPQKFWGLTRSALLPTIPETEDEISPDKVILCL
Sequence of ZFP91 (Mus musculus, UniProt Q62511) (Q3U1J4 whole entry partner): as the sequence (Q16531 whole entry partner, the tested form may be a part) above, with N418G, A495G, T745S, T1020A counted along it
Sequence of ZFP91 (Mus musculus, UniProt Q62511) (Q62511 whole entry): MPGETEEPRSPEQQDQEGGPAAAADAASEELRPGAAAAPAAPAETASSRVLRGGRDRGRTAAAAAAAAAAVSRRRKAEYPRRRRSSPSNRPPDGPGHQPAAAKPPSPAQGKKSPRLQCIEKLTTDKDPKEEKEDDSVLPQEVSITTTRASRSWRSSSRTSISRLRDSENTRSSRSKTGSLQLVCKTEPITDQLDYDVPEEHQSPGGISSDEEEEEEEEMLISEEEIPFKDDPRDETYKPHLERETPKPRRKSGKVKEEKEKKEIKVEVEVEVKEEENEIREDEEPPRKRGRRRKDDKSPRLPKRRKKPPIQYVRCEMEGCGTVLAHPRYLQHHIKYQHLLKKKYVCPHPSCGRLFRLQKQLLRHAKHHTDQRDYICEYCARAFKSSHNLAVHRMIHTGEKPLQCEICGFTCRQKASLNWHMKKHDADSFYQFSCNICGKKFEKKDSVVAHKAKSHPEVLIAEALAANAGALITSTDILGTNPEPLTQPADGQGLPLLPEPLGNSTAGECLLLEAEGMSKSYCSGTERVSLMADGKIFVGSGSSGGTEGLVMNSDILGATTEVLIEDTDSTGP
Experimental: The SALL4 and ZFP91 protein levels were examined by immunohistochemistry in rabbit, wild-type mouse, and humanized cereblon mouse testes. […] HuCRBN Mice were treated for 7 days and testis were collected and examined by immunohistochemistry (n=3 animals per treatment group per species).
as §1, with “ug/ml. For mouse testis, primary antibodies were incubated for 15 min at room temperature, and Post-Primary and horseradish peroxidase (HRP) labeled Polymer were incubated at the instrument's default conditions.” for “ug/ml.”

## O=C1CCC(N2C(=O)c3ccccc3C2=O)C(=O)N1 (stereo not shown) [thalidomide]
[1]
  Ubiquitination of ZFP91 zinc finger (a.a. 395-423) by human cereblon: efficiently ubiquitinated by human cereblon in a thalidomide-dependent manner
[2]
  Degradation of endogenous SALL4: Significant compound-dependent degradation of endogenous SALL4 was observed
[3]
  ZFP91 degradation: exhibited compound-dependent degradation in all cell lines expressing cereblon
[4]; 150 mg/kg/day
  SALL4 protein levels in testis: marked decrease; also recorded: caused degradation of both ZFP91 and SALL4
[4]; 30 or 150 mg/kg/day for 56 days
  SALL4 protein levels in testis, dose dependence: dose-dependent decrease in SALL4 levels in the testis of male rabbits; also recorded: dose-dependent reduction of SALL4 protein levels in the testis; also recorded: dose dependent decrease in SALL4 levels in rabbit testis
[5]
  Triggering the degradation of CK1α: does not trigger the degradation of CK1α
[6]
  ZFP91 protein levels in testis: exhibited no depletion of SALL4 or ZFP91; also recorded: did not cause significant degradation of either ZFP91 or SALL4
